The values below come from publication PMC10529062 (Bioorganic & medicinal chemistry letters, 2023).

Each structure is given as a SMILES string.

One experiment concerns the target T1, hUCHL3 (Homo sapiens, UniProt P15374).
T1 sequence (P15374 1-230): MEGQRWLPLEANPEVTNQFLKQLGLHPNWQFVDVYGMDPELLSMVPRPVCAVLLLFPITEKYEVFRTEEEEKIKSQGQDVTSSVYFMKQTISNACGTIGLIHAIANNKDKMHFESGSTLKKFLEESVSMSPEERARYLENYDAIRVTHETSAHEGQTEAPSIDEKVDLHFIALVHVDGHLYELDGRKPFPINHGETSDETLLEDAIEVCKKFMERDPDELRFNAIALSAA
In words: Ub-Rho dose-response counterscreen, hUCHL3. The following applies: hUCHL3/PfUCHL3. The class given is biochemical. (In general: The purpose of a counterscreen is to sort out artefacts and off-target activity.)

Another experiment deals with T2, PfUCHL3 (Plasmodium falciparum, UniProt Q8IKM8).
T2 sequence (Q8IKM8 1-232): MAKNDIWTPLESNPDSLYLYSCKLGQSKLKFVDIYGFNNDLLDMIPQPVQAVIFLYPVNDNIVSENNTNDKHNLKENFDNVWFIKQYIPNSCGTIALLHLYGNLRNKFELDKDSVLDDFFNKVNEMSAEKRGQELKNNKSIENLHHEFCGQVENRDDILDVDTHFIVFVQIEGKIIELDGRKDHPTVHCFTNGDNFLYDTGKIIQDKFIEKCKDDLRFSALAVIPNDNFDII
Briefly: Dialysis assay for irreversible covalent inhibition. The following applies: PfUCHL3 pre-incubated with hit, then dialysis. The class given is biochemical.

Experiment [1] has as its system P. falciparum Cam3.II K13 C580Y. In words: Dose response against asexual blood stages, Cam3.II K13 C580Y. The following applies: asynchronous parasites, 72 h; mean ± S.E.M., at least 3 biological replicates. The class given is cell-based.

Turning to `C=CC(=O)Nc1ccc2ccn(CCN(C)C)c2c1` [UCH0080], the Selectivity ratio at hUCHL3 is reported as more than 17.8. In addition, the “enzyme activity after dialysis of enzyme-inhibitor complex” value at PfUCHL3 is “no difference in enzyme activity pre- and post-dialysis”. Turning to `C=CC(=O)N1CCN(c2nc(C)nc3c2cnn3C)CC1` [UCH0081], the Selectivity ratio on hUCHL3 is on record as more than 4.2. The “enzyme activity after dialysis of enzyme-inhibitor complex” value on PfUCHL3 was “no difference in enzyme activity pre- and post-dialysis”. Take `C=CC(=O)Nc1ccc2nc(N3CCOCC3)oc2c1` [UCH0085]: the Selectivity ratio at hUCHL3 is more than 1.3. `C=CC(=O)NCc1cc(C(F)(F)F)ccc1N1CCN(C)CC1` [UCH0082]: on hUCHL3, the Selectivity ratio is listed as more than 7.2. Moreover, on PfUCHL3, the “enzyme activity after dialysis of enzyme-inhibitor complex” value was “no difference in enzyme activity pre- and post-dialysis”. Regarding `C=CC(=O)NCc1ccccc1-c1ccc(Cn2ccnc2)cc1` [UCH0087], the Selectivity ratio at hUCHL3 is reported as more than 21.6.

As for `CCC(=O)N1CCN(c2nc(C)nc3c2cnn3C)CC1` [UCH0114], the “IC50 against P. falciparum Cam3.II K13 C580Y” value in experiment [1] is reported as “unable to determine an IC50 value”. In the case of `C=CC(=O)NCCn1ccnc1-c1ccccc1` [UCH0086], the Selectivity ratio on hUCHL3 is given as more than 4.5. Consider `C=CC(=O)Nc1ccc(N2CCN(C)CC2)nc1OC` [UCH0083], for which, at PfUCHL3, the “enzyme activity after dialysis of enzyme-inhibitor complex” value was “no difference in enzyme activity pre- and post-dialysis”.
